From PubChem BioAssay (NCI)
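Compound exposure: 48 hours, 5 concentrations, 96-well plates. Here, GI50 denotes the concentration required for 50% inhibition of growth. At the TGI there is no net growth.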

What was measured:
Assay in all cases: inhibition of tumour cell growth, NCI panel, 48 h
[1] = tested on: MOLT-4 leukemia
[2] = tested on: PC-3 prostate
[3] = tested on: DU-145 prostate
[4] = tested on: A549 NSCLC
[5] = tested on: EKVX NSCLC
[6] = tested on: UACC-62 melanoma
[7] = tested on: SK-MEL-2 melanoma
[8] = tested on: MCF7 breast
[9] = tested on: HOP-62 NSCLC
[10] = tested on: OVCAR-3 ovarian
[11] = tested on: LOX IMVI melanoma
[12] = tested on: SN12C renal
[13] = tested on: SK-MEL-5 melanoma
[14] = tested on: NCI/ADR-RES ovarian
[15] = tested on: SNB-75 CNS
[16] = tested on: NCI-H226 lung
[17] = tested on: MDA-MB-468 breast
[18] = tested on: OVCAR-4 ovarian
[19] = tested on: A498 renal
[20] = tested on: BT-549 breast
[21] = tested on: HS 578T breast
[22] = tested on: 786-0 renal
[23] = tested on: MDA-MB-231 breast
[24] = tested on: HL-60(TB) leukemia
[25] = tested on: MALME-3M melanoma
[26] = tested on: SK-OV-3 ovarian
[27] = tested on: HOP-92 NSCLC
[28] = tested on: HCT-116 colon
[29] = tested on: IGROV1 ovarian
[30] = tested on: ACHN renal
[31] = tested on: HCT-15 colon
[32] = tested on: SF-295 CNS
[33] = tested on: MDA-MB-435
[34] = tested on: M14 melanoma
[35] = tested on: CCRF-CEM leukemia
[36] = tested on: HT29 colon
[37] = tested on: OVCAR-5 ovarian
[38] = tested on: TK-10 renal
[39] = tested on: SW-620 colon
[40] = tested on: CAKI-1 renal
[41] = tested on: RPMI-8226 leukemia
[42] = tested on: T-47D breast
[43] = tested on: U251 CNS
[44] = tested on: SR leukemia
[45] = tested on: UO-31 renal
[46] = tested on: SK-MEL-28 melanoma
[47] = tested on: RXF 393 renal
[48] = tested on: UACC-257 melanoma
[49] = tested on: NCI-H522 lung
[50] = tested on: COLO 205 colon
[51] = tested on: KM12 colon
[52] = tested on: SNB-19 CNS
[53] = tested on: SF-268 CNS
[54] = tested on: OVCAR-8 ovarian
[55] = tested on: SF-539 CNS
[56] = tested on: NCI-H23 lung
[57] = tested on: HCC-2998 colon
[58] = tested on: K-562 leukemia
[59] = tested on: NCI-H460 lung

Q: Which results are given for `Nc1cc(-c2c[nH]c3ccc(Br)cc23)nc2cc(-c3c[nH]c4ccccc34)nn12`?
A: GI50 [1]: 2.4 µM; TGI [1]: 6.72 µM; GI50 [2]: 2.57 µM; TGI [2]: 8.4 µM; GI50 [3]: 3.88 µM; TGI [3]: 14.4 µM; GI50 [4]: 2.91 µM; TGI [4]: 11.5 µM; GI50 [5]: 2.92 µM; TGI [5]: 10.9 µM; GI50 [6]: 1.88 µM; TGI [6]: 4.35 µM; GI50 [7]: 2.44 µM; TGI [7]: 7.13 µM; GI50 [8]: 2.05 µM; TGI [8]: 5 µM; GI50 [9]: 3.52 µM; TGI [9]: 12.2 µM; GI50 [10]: 3.44 µM; TGI [10]: 14 µM; GI50 [11]: 1.69 µM; TGI [11]: 3.07 µM; GI50 [12]: 4.03 µM; TGI [12]: 16.4 µM; GI50 [13]: 2.7 µM; TGI [13]: 7.62 µM; GI50 [14]: 3.33 µM; TGI [14]: 13.3 µM; GI50 [15]: 2.17 µM; TGI [15]: 11.3 µM; GI50 [16]: 6.13 µM; TGI [16]: 41.4 µM; GI50 [17]: 1.75 µM; TGI [17]: 4.13 µM; GI50 [18]: 3.97 µM; TGI [18]: 19 µM; GI50 [19]: 2.42 µM; TGI [19]: 7.74 µM; GI50 [20]: 9.32 µM; TGI [20]: 21.8 µM; GI50 [21]: 3.11 µM; TGI [21]: 9.62 µM; GI50 [22]: 1.63 µM; TGI [22]: 3.54 µM; GI50 [23]: 1.9 µM; TGI [23]: 3.63 µM; GI50 [24]: 2.84 µM; TGI [24]: 12.7 µM; GI50 [25]: 1.91 µM; TGI [25]: 3.64 µM; GI50 [26]: 7.75 µM; TGI [26]: 21 µM; GI50 [27]: 2.06 µM; TGI [27]: 6.08 µM; GI50 [28]: 1.77 µM; TGI [28]: 3.39 µM; GI50 [29]: 3.55 µM; TGI [29]: 14.6 µM; GI50 [30]: 2.77 µM; TGI [30]: 9.2 µM; GI50 [31]: 1.74 µM; TGI [31]: 3.62 µM; GI50 [32]: 1.9 µM; TGI [32]: 4.01 µM; GI50 [33]: 2.95 µM; TGI [33]: 9.98 µM; GI50 [34]: 2.09 µM; TGI [34]: 5.05 µM; GI50 [35]: 3.05 µM; TGI [35]: 13.2 µM; GI50 [36]: 1.98 µM; TGI [36]: 4.08 µM; GI50 [37]: 2.08 µM; TGI [37]: 5.36 µM; GI50 [38]: 2.56 µM; TGI [38]: 12 µM; GI50 [39]: 1.87 µM; TGI [39]: 3.7 µM; GI50 [40]: 2.2 µM; TGI [40]: 7.33 µM; GI50 [41]: 2.88 µM; TGI [41]: 9.09 µM; GI50 [42]: 3.15 µM; TGI [42]: 20.3 µM; GI50 [43]: 2 µM; TGI [43]: 4.57 µM; GI50 [44]: 2.23 µM; TGI [44]: > 100 µM; GI50 [45]: 2.74 µM; TGI [45]: 11.8 µM; GI50 [46]: 2.23 µM; TGI [46]: 5.71 µM; GI50 [47]: 2.66 µM; TGI [47]: 7.87 µM; GI50 [48]: 3.86 µM; TGI [48]: 15.1 µM; GI50 [49]: 1.68 µM; TGI [49]: 3.51 µM; GI50 [50]: 1.73 µM; TGI [50]: 3.33 µM; GI50 [51]: 2.21 µM; TGI [51]: 5.31 µM; GI50 [52]: 3.67 µM; TGI [52]: 14.1 µM; GI50 [53]: 3.72 µM; TGI [53]: 18.5 µM; GI50 [54]: 4.06 µM; TGI [54]: 18.1 µM; GI50 [55]: 1.74 µM; TGI [55]: 3.38 µM; GI50 [56]: 2.36 µM; TGI [56]: 6.64 µM; GI50 [57]: 1.85 µM; TGI [57]: 3.61 µM

Q: What does the source list for `CN1C(=O)/C(=C/c2ccc3ncsc3c2)NC1=NC12CC3CC(CC(O)(C3)C1)C2`?
A: GI50 [1]: 2.22 µM; TGI [1]: 22.3 µM; GI50 [2]: 3.73 µM; TGI [2]: > 100 µM; GI50 [3]: 2.97 µM; TGI [3]: > 100 µM; GI50 [4]: 1.98 µM; TGI [4]: > 100 µM; GI50 [5]: 4.25 µM; TGI [5]: > 100 µM; GI50 [6]: 2.22 µM; TGI [6]: 9.09 µM; GI50 [7]: 1.98 µM; TGI [7]: 9.48 µM; GI50 [8]: 2.98 µM; TGI [8]: > 100 µM; GI50 [9]: 4.13 µM; TGI [9]: > 100 µM; GI50 [10]: 1.4 µM; TGI [10]: 6.18 µM; GI50 [11]: 2.52 µM; TGI [11]: > 100 µM; GI50 [12]: 2.07 µM; TGI [12]: 49.6 µM; GI50 [13]: 2.02 µM; TGI [13]: 5.07 µM; GI50 [15]: 1.02 µM; TGI [15]: 7.89 µM; GI50 [16]: 2.7 µM; TGI [16]: > 100 µM; GI50 [17]: 1.48 µM; TGI [17]: 15.9 µM; GI50 [18]: 9.29 µM; TGI [18]: > 100 µM; GI50 [19]: 1.6 µM; TGI [19]: 6.68 µM; GI50 [20]: 1.17 µM; TGI [20]: 10.3 µM; GI50 [21]: 2.16 µM; TGI [21]: 8.97 µM; GI50 [22]: 4.02 µM; TGI [22]: > 100 µM; GI50 [23]: 4.26 µM; TGI [23]: 85.4 µM; GI50 [24]: 3.2 µM; TGI [24]: 8.15 µM; GI50 [25]: 2.98 µM; TGI [25]: 8.25 µM; GI50 [26]: 2.21 µM; TGI [26]: > 100 µM; GI50 [58]: 1.7 µM; TGI [58]: > 100 µM; GI50 [27]: 5.31 µM; TGI [27]: 56.9 µM; GI50 [29]: 2.82 µM; TGI [29]: > 100 µM; GI50 [30]: 0.892 µM; TGI [30]: > 100 µM; GI50 [31]: 2.13 µM; TGI [31]: > 100 µM; GI50 [59]: 2.22 µM; TGI [59]: > 100 µM; GI50 [32]: 5.28 µM; TGI [32]: > 100 µM; GI50 [33]: 3.69 µM; TGI [33]: 20 µM; GI50 [34]: 4.28 µM; TGI [34]: 34.4 µM; GI50 [35]: 1.92 µM; TGI [35]: 8.18 µM; GI50 [36]: 3.85 µM; TGI [36]: 17.8 µM; GI50 [37]: 5.12 µM; TGI [37]: > 100 µM; GI50 [38]: 4.44 µM; TGI [38]: > 100 µM; GI50 [39]: 2.74 µM; TGI [39]: 17.3 µM; GI50 [40]: 1.64 µM; TGI [40]: > 100 µM; GI50 [41]: 1.98 µM; TGI [41]: 6.83 µM; GI50 [42]: 3.32 µM; TGI [42]: > 100 µM; GI50 [43]: 3.14 µM; TGI [43]: > 100 µM; GI50 [44]: 0.534 µM; TGI [44]: 5.37 µM; GI50 [46]: 2.57 µM; TGI [46]: 8.69 µM; GI50 [47]: 1.85 µM; TGI [47]: 12.2 µM; GI50 [48]: 3.59 µM; TGI [48]: 12.5 µM; GI50 [49]: 0.768 µM; TGI [49]: 4.49 µM; GI50 [50]: 3.18 µM; TGI [50]: 30.5 µM; GI50 [51]: 2.81 µM; TGI [51]: > 100 µM; GI50 [52]: 3.47 µM; TGI [52]: > 100 µM; GI50 [53]: 4.47 µM; TGI [53]: 34.5 µM; GI50 [54]: 3.01 µM; TGI [54]: > 100 µM; GI50 [55]: 1.29 µM; TGI [55]: 5.82 µM; GI50 [56]: 2.48 µM; TGI [56]: 13.9 µM; GI50 [57]: 7.66 µM; TGI [57]: > 100 µM
